Reference: patent US11931345B2, “Thiazolidinedione analogs for the treatment of NAFLD and metabolic diseases” (Cirius Therapeutics, Inc., priority 2018, dated 2024)

Tests used:
[1] = test system: ZDSD/Pco rats challenged with a high fat diet; test: ZDSD/Pco rats on high fat diet: circulating glucose, insulin, OGTT; format: in vivo, rat; conditions: over 4 week treatment, compared to group 2 (control treatment on high fat diet); oral MSDC-0602 30 mg/kg, exenatide s.q. 1 μg
Method: (§1) Male ZDSD/Pco rats were maintained on standard chow 5008 (Purina) until treatment groups were switched to the high fat diet (Purina 5SCA). […] Control rats (given both vehicles) were maintained on the normal diet and the treatment groups were switched to the high fat diet as indicated. Glucose and insulin were measured weekly from tail vein samples. On day 36 an oral glucose tolerance test (OGTT); 2 g/kg) was conducted after a 16 hour fast. Glucose samples were taken at 0, 30, 60, 90, and 120 minutes; insulin was measured at 0 and 30 minutes and the change at 30 minutes is shown. Data are mean and SE; N=10. At sacrifice, the pancreas was fixed in formalin and shipped to MSU for histology and IHC. A range of anti-bodies were used to identify and quantify the presence of insulin, Ki67, collagen, CD3 lymphocytes, PDX-1 and Bcl2. An Image-Pro system was used with Image J to quantify the degree of positive staining. […] Five matched groups of ZDSD/Pco rats were selected at 14 weeks of age and then treated for 6 weeks. […] At sacrifice, the pancreas was removed, fixed, and stained for insulin, PDX1, and Ki67, as an index of proliferation.

[2] = test system: pancreatic islets; test: Pancreas histology and IHC of ZDSD/Pco rats (insulin, Ki67, PDX-1, Bcl2); format: in vivo, rat; conditions: pancreas at sacrifice; high fat diet; oral MSDC-0602 30 mg/kg, exenatide s.q. 1 μg
Method: as §1

[3] = test system: diet-induced obese (60% HF diet) WT (fl/fl) and LS-MPC2-/- mice; test: Intraperitoneal glucose tolerance test and plasma insulin in diet-induced obese WT and LS-MPC2-/- mice after a single dose; format: in vivo, mouse; conditions: for glucose tolerance (GTT): 20 h after a single dose of 30 mg/kg; for plasma insulin: single dose 30 mg/kg
Method: (§2) 8 week old WT and LS-MPC2−/− mice were fed a diet of 60% fat (Research Diets D12492) for 20 weeks to induce obesity and insulin resistance. Intraperitoneal glucose tolerance tests (GTT) were performed after a 4 h fast by injection of 1 g/kg D-glucose in saline i.p. to assess glucose tolerance. 3 days after the initial GTT, mice were randomized to receive a single gavage of either vehicle (1% CMC, 0.01% Tween-80) or 30 mg/kg MSDC-0602K. Plasma insulin was measured by Singulex assay and plasma ALT levels were measured by commercially-available kits (Teco Diagnostics). qPCR was performed by isolation of total RNA with RNA-Bee and reverse transcription with a high-capacity cDNA synthesis kit (Invitrogen). qPCR was performed on an Applied Biosystems real-time thermocycler.

[4] = test system: diet-induced obese (60% HF diet) WT (fl/fl) and LS-MPC2-/- mice; test: Markers of liver injury (plasma ALT, qPCR gene expression) in obese WT and LS-MPC2-/- mice after a single dose; format: in vivo, mouse
Method: as §2

[5] = test system: serum miRNAs; test: Serum miRNA sequencing in NASH (HTF-C) diet mice; format: in vivo, mouse
Method: To begin evaluating the exosome cargo of MSDC-0602K-treated mice, WT mice were fed with either a low fat (LF) control diet (Research Diets D09100304) or high trans-fat, fructose, cholesterol (HTF-C) diet composed of 40% trans-fat, 20% fructose, 2% cholesterol (Research Diets D09100301).
Total RNA was isolated from 400 μL of serum and small RNA sequencing was performed by adapter ligation, cDNA synthesis and size selection of 145-160 base pairs. Sequencing was then performed on an Illumina HiSeq3000.

[6] = test system: uncoupling protein 1 (UCP1); test: UCP1 expression (Western blot) in brown adipose precursors in vitro, with T3; format: cell-based; conditions: added to T3 0 to 30 nM; sensitivity and magnitude of response; FIG. 14
From the text: FIG. 14. Is a graphic representation of the data of thyroid hormone with MSDC-0602 in vitro.
The addition of the thyroid agonist not only increases the maximum response. […] The response measured here is increased expression of the uncoupling protein 1 (UCP1) on Western blot—a measure of differentiation of brown adipose cells.

[7] = phase 2 clinical trial, cited from earlier work
[8] = test system: mouse model of NASH; conditions: effects require MPC expression in hepatocytes; cited from earlier work
[9] = target: T1, mitochondrial pyruvate carrier (MPC) (Homo sapiens, UniProt O95563+Q9Y5U8); conditions: cited from earlier work
T1 sequence (Q9Y5U8 1-109): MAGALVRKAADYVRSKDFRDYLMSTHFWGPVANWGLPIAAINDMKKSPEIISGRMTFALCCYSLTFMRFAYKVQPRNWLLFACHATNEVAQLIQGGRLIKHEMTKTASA
T1 sequence (O95563 1-127): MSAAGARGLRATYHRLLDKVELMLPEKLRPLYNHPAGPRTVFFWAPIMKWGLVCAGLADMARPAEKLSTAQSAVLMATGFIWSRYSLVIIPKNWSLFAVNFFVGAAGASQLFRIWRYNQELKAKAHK

| SMILES | glucose levels [1] | insulin staining [2] | number of islet cells [2] | glucose tolerance (GTT) ([3]; LS-MPC2-/- mice) | plasma insulin ([3]; LS-MPC2-/- mice) | glucose tolerance (GTT) ([3]; WT mice) | plasma insulin ([3]; WT mice) | plasma ALT and liver injury gene expression, response to acute treatment ([4]; LS-MPC2-/- mice, single dose) | plasma ALT concentrations ([4]; WT mice, single dose, FIG. 11A) | gene expression for hepatic stellate cell activation and fibrotic scar formation ([4]; WT mice, single dose, FIG. 11B) | serum miRNAs altered in NASH model ([5]; HTF-C diet containing 331 ppm MSDC-0602, heat map of ~230 miRNAs) | serum miRNAs upregulated in NASH (mmu-miR-29c-3p, mmu-miR-802-3p, mmu-miR-802-5p) ([5]; HTF-C diet, FIGS. 13A-13C) | serum miRNAs down in NASH (mmu-miR-127-3p, mmu-miR-129-2-3p, mmu-miR-615-3p) ([5]; HTF-C diet, FIGS. 13D-13F) | serum miRNAs mmu-miR-129-5p, mmu-miR-205-5p ([5]; HTF-C diet, FIGS. 13G-13H) | increase of UCP1 expression, interaction with thyroid hormone [6] | circulating glucose ([7]; FIG. 1A) | circulating insulin ([7]; FIG. 1B) | liver damage [8] | MPC binding and modulation [9] | liver injury, major acute effects ([4]; acute dosing, effects require hepatocyte MPC) |
| --- | --- | --- | --- | --- | --- | --- | --- | --- | --- | --- | --- | --- | --- | --- | --- | --- | --- | --- | --- | --- |
| COc1cccc(C(=O)COc2ccc(CC3SC(=O)NC3=O)cc2)c1 (stereo not shown) [MSDC-0602] | significantly reduced | increased | increased | no improvement in glucose tolerance | decreased | improved glucose tolerance | decreased | refractory | decreased | decreased | largely corrected | down | up | large effect | synergy (much larger response) | lowered | lowered | prevents and reverse liver damage | binds and modulates |  |
| COc1cccc(C(=O)COc2ccc(CC3SC(=O)[N-]C3=O)cc2)c1.[K+] (stereo not shown) [MSDC-0602K] |  |  |  |  |  | improves glucose tolerance |  |  |  |  |  |  |  |  | synergistic |  |  |  |  | attenuate liver injury |
